Experimental data taken from patent US10005779B2, “1′,4′-thio nucleosides for the treatment of HCV” (priority 2013, dated 2018).
Read-outs that look alike come from different tables or passages of the source.

Legend:
[1] = tested on: HCV genotype 1b replicon in Huh-7-derived cell line (Zluc); assay: microbe, parasite or virus in culture; assay type: cell-based; conditions: Hepatitis C virus, read-out: HCV Replicon EC50
Procedure: Huh-7-derived cell line (Zluc) that harbors an HCV genotype 1b replicon and a luciferase reporter gene was grown in Dulbecco's Modified Eagle Medium (DMEM) supplemented with 10% fetal bovine serum, 2 mM GlutaMAX, 1% MEM nonessential amino acids, 100 IU/mL penicillin, 100 μg/mL streptomycin, and 0.5 mg/mL Geneticin® (G418). For dose response testing the cells were seeded in 96-well plates at 7.5×10^3 cells per well in a volume of 50 μL, and incubated at 37° C./5% CO2. Drug solutions were made up freshly in Huh-7 media as 2× stocks. Ten additional 5-fold dilutions were prepared from these stocks in DMEM without G418. At least three hours after Zluc cells were seeded, drug treatment was initiated by adding 50 μL of drug dilutions to the plates in duplicate. […] Cells were then incubated at 37° C./5% CO2. Alternatively, compounds were tested at two concentrations (1 μM and 10 μM). […] For this, media was removed from the plates via gentle tapping. Fifty microliters of ONE-glo luciferase assay reagent was added to each well. […] The EC50 values were calculated from dose response curves from the resulting best-fit equations determined by Microsoft Excel and XLfit 4.1 software.

[2] = Cytotoxicity evaluation, CellTiter-Blue Cell Viability Assay; assay type: cell-based; conditions: human, Zluc cells (HCV replicon cells)
Procedure: For cytotoxicity evaluation, Zluc cells were treated with compound as described herein, and cell viability was monitored using the CellTiter-Blue Cell Viability Assay (Promega) by adding 20 μL of the assay solution to each well. The plates were then incubated at 37° C./5% CO2 for at least 3 hours.

[3] = biological target: T1, HCV genotype 1b NS5B polymerase containing the S282T mutation (Hepatitis C virus genotype 1b, UniProt Q9WMX2, S2701T); assay: HCV polymerase enzyme assay, S282T mutant; assay type: biochemical
T1 construct: recombinant HCV polymerases (with a deletion of the 21 carboxy terminal amino acids); made in house
Source text: (§1) Test compounds in the form of nucleoside triphosphates were examined for inhibitory activity against purified HCV polymerase in a standard assay. Bacterial expression constructs encoding the approximately 65 kDa HCV genotype 1b NS5B protein were used to generate recombinant HCV polymerases (with a deletion of the 21 carboxy terminal amino acids). Both the wild-type genotype 1b protein and protein containing the S282T mutation were expressed and purified for use in the enzymatic activity assay.
(§2) The enzymatic activity assay measured the inhibitory effect of increasing concentrations of test compound on the incorporation of α-[^33P]-labeled nucleotide into trichloroacetic acid-precipitable material. Recombinant polymerase and synthetic RNA template were combined in reaction buffer containing ribonucleoside triphosphates, α-[^33P]-labeled nucleotide and eight concentrations of test compound in three-fold dilutions. Reactions were incubated for two hours at 30° C.
(§3) Reactions were terminated by the addition of ice-cold trichloroacetic acid and sodium pyrophosphate to promote precipitation of newly-synthesized ribonucleic acid. Precipitable material from the reactions was collected by filtration onto 96-well filter plates, washed extensively with water, and quantified by liquid scintillation.
(§4) The inhibitory activity of test compounds was determined by fitting results to dose-response curves using XLfit software.

[4] = biological target: T2, wild-type HCV genotype 1b NS5B polymerase (Hepatitis C virus genotype 1b, UniProt Q9WMX2); assay: HCV polymerase enzyme assay, wild-type; assay type: biochemical
T2 construct: recombinant HCV polymerases (with a deletion of the 21 carboxy terminal amino acids); made in house
Source text: as §1, §2, §3, §4

[5] = Zluc cells, 72 hours of incubation, luciferase readout

SMILES | EC50 ([1]; 72 h) | CC50 at 72 h [2] | EC50 [1, 5] | IC50 [3] | IC50 [4]
CC(C)OC(=O)[C@H](C)NP(=O)(OC[C@H]1S[C@@H](n2ccc(=O)[nH]c2=O)[C@](C)(O)[C@@H]1O)Oc1ccccc1 (single isomer, unassigned) [1b diastereomer 1] | > 10 µM | > 50 µM |  |  | 
CC(C)OC(=O)[C@H](C)N[P@](=O)(OC[C@H]1S[C@@H](n2ccc(=O)[nH]c2=O)[C@H](O)[C@@H]1O)Oc1ccccc1 [Compound 2bii] |  | > 50 µM | > 10 µM |  | 
CC(C)OC(=O)[C@H](C)NP(=O)(OCCSC(=O)C(C)(C)C)OC[C@H]1S[C@@H](n2ccc(=O)[nH]c2=O)[C@H](O)[C@@H]1O (single isomer, unassigned) [4b diastereomer 1] |  | > 50 µM | > 10 µM |  | 
Nc1nc2c(ncn2[C@@H]2S[C@H](COP(=O)(O)OP(=O)(O)OP(=O)(O)O)[C@@H](O)[C@H]2O)c(=O)[nH]1 [Compound 203] |  |  |  | 1 to 10 µM | 0.25 to 1 µM
CC(C)(C)C(=O)SCCOP(=O)(NCc1ccccc1)OC[C@H]1S[C@@H](n2ccc(=O)[nH]c2=O)[C@H](O)[C@@H]1O (mixture of isomers) [3 mixture of diastereomers] |  | > 50 µM | > 10 µM |  | 
CC(C)OC(=O)[C@@H](C)NP(=O)(OC[C@H]1S[C@@H](n2ccc(=O)[nH]c2=O)[C@H](O)[C@@H]1O)Oc1ccccc1 (mixture of isomers) [2a mixture of diastereomers] |  | > 50 µM | > 10 µM |  | 
C[C@@]1(O)[C@H](O)[C@@H](COP(=O)(O)OP(=O)(O)OP(=O)(O)O)S[C@H]1n1ccc(=O)[nH]c1=O [Compound 201] |  |  |  | > 10 µM | 1 to 10 µM
CC(C)OC(=O)[C@H](C)N[P@@](=O)(OC[C@H]1S[C@@H](n2ccc(=O)[nH]c2=O)[C@H](O)[C@@H]1O)Oc1ccccc1 [Compound 2bi] |  | > 50 µM | > 10 µM |  | 
O=c1ccn([C@@H]2S[C@H](COP(=O)(O)OP(=O)(O)OP(=O)(O)O)[C@@H](O)[C@H]2O)c(=O)[nH]1 [Compound 202] |  |  |  | 0.25 to 1 µM | 0.25 to 1 µM
CC(C)OC(=O)[C@H](C)NP(=O)(OCCSC(=O)C(C)(C)C)OC[C@H]1S[C@@H](n2ccc(=O)[nH]c2=O)[C@H](O)[C@@H]1O (mixture of isomers) [4b mixture of diastereomers] |  | > 50 µM | > 10 µM |  | 
